Laboratory results published in patent US20220313626A1, “SMALL MOLECULE INHIBITORS FOR TREATING CANCER IN A SUBJECT HAVING TUMORS WITH HIGH INTERSTITIAL PRESSURE” (GUANGZHOU MAXINOVEL PHARMACEUTICALS CO., LTD., priority 2019, published 2022).

Test system: B16F10 tumor cells
Assay: Anti-tumor efficacy in the B16F10 models
Type: in vivo
Settings: for TGI / Tumor Volume: BID, 20 days
Procedure: Materials required for the experiment: Antibody: mouse PD-1 antibody, Product specifications: 7.09 mg/mL (50 mg/mL), Lot No.: 695318A1 purchased from BioXcell, storage at 4 °C. Experimental animals: 60 C57BL/6 mice, female, 6˜8 weeks old, 17˜21 g, purchased from Shanghai Lingchang Biotechnology Co. Ltd. Formulation materials: castor oil (Cremophor RH40) , CAS No.: 61788-85-0, Lot No.: 29761847G0, purchased from Shanghai Xietai Chemical Co. Ltd.; β-cyclodextrin (SBE-β-CD), CAS No.: 128446-35-5, Lot No.: 20180110, purchased from Shanghai Shaoyuan Chemical Co. Ltd.; DMEM culture medium, Art. No.: 11995-065, Lot No.:2025378, purchased from Gibco Co. Ltd.; PBS, Art. No.: SH30256.01, Lot No.: AB10141338, purchased from HyClone Co. Ltd.; Fetal bovine serum: Art. No.: 04-002-1A, Lot No.: 1625436, purchased from Boehringer Ingelheim Co. Ltd.; Methyl cellulose (MC), Art. No.: M7027-250G, Lot No.: 079K0054V, purchased from Sigma.
Cell preparation and implantation: The B16-F10 tumor cells (ATCC CRL6475™) were maintained in vitro as a monolayer culture in DMEM medium supplemented with 10% heat inactivated fetal bovine serum at 37° C. in an atmosphere of 5% CO2 in air. The tumor cells were routinely subcultured three times weekly by trypsin-EDTA treatment. The cells growing to a confluency around 70%-80% were harvested and counted for tumor inoculation.
Tumor cell inoculation and group administration: The 100 uL cell suspension containing 1×10^6 B16F10 tumor cells (cells suspended in base DMEM medium) was inoculated into the right subcutaneous of mice. On the second day after inoculation, according to the order of tumor inoculation, stratified randomization was used to group and start the administration on the day of grouping.
Preparation of test substances: Preparation of formulation: 700 mL of sterile water was added into the volumetric flask with magnetic stirring to have a vortex. 100 g of castor oil (Cremophor RH40) was added with a spoon slowly into the vortex and the solution was kept stirring. 200 g of β-cyclodextrin (SBE-β-CD) was added while the solution was kept stirring until the solution was clear, and the total volume was set to 1000 mL, which contained 10% (w/v) Cremophor RH40+20% (w/v) an aqueous solution of SBE-β-CD.
Preparation of compound suspension: 169.16 mg compound was weighed, 14.012 mL 10% (w/v) Cremophor RH40+20% (w/v) SBE-β-CD aqueous solution were added, and the suspension solution with a concentration of 12.0 mg/mL was obtained by fully mixing with magnetic stirring. 6.0 mL of the compound suspension solution with concentration of 12.0 mg/mL was pipetted and 6.0 mL aqueous formulation solution was added. The suspension solution with a concentration of 6.0 mg/mL was obtained by fully mixing with magnetic stirring. 6.0 mL of the compound suspension solution with concentration of 6.0 mg/mL was pipetted and 6.0 mL aqueous formulation solution was added. The suspension solution with a concentration of 3.0 mg/mL was obtained by fully mixing with magnetic stirring. The compound suspension solution was prepared once a day.
Preparation of mPD-1 antibody: 0.564 mL mPD-L1 antibody (7.09 mg/mL) original solution was pipetted and […] PBS solution was added. The solution was fully mixed and the final concentration of 1 mg/mL solution was obtained.
Procedure: The mice in the vehicle group were weighed and recorded in the electronic balance according to their numbers. The mice in the vehicle group were given prepared formulation solution twice a day by oral administration according to their body weight with a capacity of 0.1 mL/10 g. Each mouse spent about 20 seconds and 10 mice in each group shared for about 5 minutes.
The mice in the antibody (10 mg/kg) group were weighed and recorded in the electronic balance according to their numbers. The mice in the antibody group were given prepared antibody solution twice a week by IP administration according to their body weight with a capacity of 0.1 ml/10 g. […]

[1] = B16F10, C57BL/6 mice, 30 mg/kg, PO
[2] = B16F10, C57BL/6 mice, 60 mg/kg, PO
[3] = B16F10, C57BL/6 mice, 120 mg/kg, PO

Q: For Cc1c(/C=C/c2cc(CN[C@@](C)(CO)C(=O)O)ccc2C(F)(F)F)cccc1-c1ccccc1 [Compound], which “growth of subcutaneous transplanted melanoma cell line in mice” value (B16F10, C57BL/6 mice) is on record?
A: The value was “significantly inhibit the growth”.

Q: What about the TGI [1] of the same compound?
A: The TGI was 35.59%.

Q: And the “Tumor Volume” value [1]?
A: Its value is 795.99 ± 112.92 mm^3.

Q: And the TGI [2]?
A: The TGI was 38.87%.

Q: And the “Tumor Volume” value [2]?
A: The value was 755.48 ± 155.85 mm^3.

Q: And the TGI [3]?
A: Its TGI is 47.35%.

Q: What about the “Tumor Volume” value [3] of the same compound?
A: The value was 650.67 ± 157.53 mm^3.

Q: And the “tolerability (adverse reactions)” value (C57BL/6 mice, PO, BID up to 120 mg/kg)?
A: The value was “well tolerated”.
